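How tested: cells in 96-well plates exposed to compound for 48 hours at five concentrations. Abbreviation: GI50, concentration required for 50% inhibition of growth.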 Activity calls are given as the source filed them. No stated cut-off is given here; in the data, active = GI50 up to about 1.1 µM and inactive = higher.
What was measured:
Test in all cases: growth of human tumour cells (NCI), 48 h
[1] = test system: NCI-H460
[2] = test system: Hs-578T
[3] = test system: RXF 393
[4] = test system: SK-MEL-28
[5] = test system: RPMI-8226
[6] = test system: SF-295
[7] = test system: BT-549
[8] = test system: NCI-H522
[9] = test system: LOX IMVI
[10] = test system: HCT-15
[11] = test system: OVCAR-8
[12] = test system: MDA-N
[13] = test system: SW-620
[14] = test system: IGROV-1
[15] = test system: OVCAR-5
[16] = test system: PC-3
[17] = test system: U-251
[18] = test system: A498
[19] = test system: HOP-62
[20] = test system: SF-268
[21] = test system: MDA-MB-231
[22] = test system: CCRF-CEM
[23] = test system: SN12C
[24] = test system: SK-OV-3
[25] = test system: SK-MEL-2
[26] = test system: COLO 205
[27] = test system: HT-29
[28] = test system: HCC 2998
[29] = test system: NCI-H23
[30] = test system: KM12
[31] = test system: M14
[32] = test system: DU-145
[33] = test system: UACC-62
[34] = test system: UACC-257
[35] = test system: T47D
[36] = test system: CAKI-1
[37] = test system: UO-31
[38] = test system: HCT-116
[39] = test system: Malme-3M
[40] = test system: HOP-92
[41] = test system: ACHN
[42] = test system: MDA-MB-435
[43] = test system: OVCAR-4
[44] = test system: HL-60
[45] = test system: A549
[46] = test system: SF-539
[47] = test system: K562
[48] = test system: 786-0
[49] = test system: SNB-75
[50] = test system: SNB-19
[51] = test system: EKVX
[52] = test system: NCI/ADR-RES
[53] = test system: SK-MEL-5
[54] = test system: NCI-H226
[55] = test system: SR
[56] = test system: TK-10
[57] = test system: MOLT-4
[58] = test system: MCF7
[59] = test system: OVCAR-3

C=C[C@@]1(C)CC2(C=C(CO)C(O)O2)Oc2c1c(=O)oc1cccc(C)c21 (stereo partly drawn)
GI50 [1]: 19.8 µM (inactive)
GI50 [2]: 10.6 µM (inactive)
GI50 [3]: 2.26 µM (inactive)
GI50 [4]: 7.74 µM (inactive)
GI50 [5]: 0.822 µM (active)
GI50 [6]: 27.7 µM (inactive)
GI50 [7]: 3.35 µM (inactive)
GI50 [8]: 2.33 µM (inactive)
GI50 [9]: 3.61 µM (inactive)
GI50 [10]: 2.39 µM
GI50 [11]: 5.28 µM (inactive)
GI50 [12]: 4.03 µM (inactive)
GI50 [13]: 1.55 µM (inactive)
GI50 [14]: 13.8 µM (inactive)
GI50 [15]: 17.6 µM (inactive)
GI50 [16]: 15.6 µM (inactive)
GI50 [17]: 10.9 µM (inactive)
GI50 [18]: 24.2 µM (inactive)
GI50 [19]: 17.5 µM (inactive)
GI50 [20]: 3.25 µM (inactive)
GI50 [21]: 10.5 µM (inactive)
GI50 [22]: 1.58 µM (inactive)
GI50 [23]: 9.86 µM (inactive)
GI50 [24]: 24.4 µM (inactive)
GI50 [25]: 4.1 µM (inactive)
GI50 [26]: 9.08 µM (inactive)
GI50 [27]: 4.69 µM (inactive)
GI50 [28]: 20.9 µM (inactive)
GI50 [29]: 7.45 µM (inactive)
GI50 [30]: 18.3 µM (inactive)
GI50 [31]: 3.52 µM (inactive)
GI50 [32]: 13.9 µM (inactive)
GI50 [33]: 10.2 µM (inactive)
GI50 [34]: 14.7 µM (inactive)
GI50 [35]: 10.7 µM (inactive)
GI50 [36]: 4.61 µM (inactive)
GI50 [37]: 5.31 µM (inactive)
GI50 [38]: 1.74 µM (inactive)
GI50 [39]: 4.85 µM (inactive)
GI50 [40]: 20.2 µM (inactive)
GI50 [41]: 7.78 µM (inactive)
GI50 [42]: 3.57 µM (inactive)
GI50 [43]: 3.78 µM (inactive)
GI50 [44]: 1.77 µM (inactive)
GI50 [45]: 31 µM (inactive)
GI50 [46]: 5.53 µM (inactive)
GI50 [47]: 2.23 µM (inactive)
GI50 [48]: 1.98 µM (inactive)
GI50 [49]: 14.8 µM (inactive)
GI50 [50]: 16.7 µM (inactive)
GI50 [51]: 17.1 µM (inactive)
GI50 [52]: 2.61 µM (inactive)
GI50 [53]: 12.7 µM (inactive)
GI50 [54]: 17.9 µM (inactive)
GI50 [55]: 2.4 µM (inactive)
GI50 [56]: 17.6 µM (inactive)
GI50 [57]: 2.1 µM (inactive)
GI50 [58]: 6.62 µM (inactive)
GI50 [59]: 3.16 µM (inactive)

Cc1nn2c(=O)c([N+](=O)[O-])c(/C=C/c3ccc(F)cc3)nc2s1
GI50 [1]: 8.34 µM (inactive)
GI50 [2]: 11.2 µM (inactive)
GI50 [3]: 4.42 µM (inactive)
GI50 [4]: 12.9 µM (inactive)
GI50 [5]: 3.51 µM (inactive)
GI50 [6]: 11.8 µM (inactive)
GI50 [7]: 5.12 µM (inactive)
GI50 [8]: 8.49 µM (inactive)
GI50 [9]: 2.79 µM (inactive)
GI50 [10]: 7.5 µM
GI50 [11]: 6.07 µM (inactive)
GI50 [12]: 5.96 µM (inactive)
GI50 [13]: 11.5 µM (inactive)
GI50 [14]: 10.5 µM (inactive)
GI50 [15]: 9.89 µM (inactive)
GI50 [16]: 9.42 µM (inactive)
GI50 [17]: 4.84 µM (inactive)
GI50 [18]: 16.3 µM (inactive)
GI50 [19]: 15 µM (inactive)
GI50 [20]: 8.87 µM (inactive)
GI50 [21]: 13.9 µM (inactive)
GI50 [22]: 4.47 µM (inactive)
GI50 [23]: 11.6 µM (inactive)
GI50 [24]: 12.6 µM (inactive)
GI50 [25]: 9.91 µM (inactive)
GI50 [26]: 12.1 µM (inactive)
GI50 [27]: 6.52 µM (inactive)
GI50 [28]: 11.4 µM (inactive)
GI50 [29]: 15.2 µM (inactive)
GI50 [30]: 7.24 µM (inactive)
GI50 [31]: 11.3 µM (inactive)
GI50 [32]: 16.2 µM (inactive)
GI50 [33]: 11.3 µM (inactive)
GI50 [34]: 10.9 µM (inactive)
GI50 [35]: 4.03 µM (inactive)
GI50 [36]: 8.67 µM (inactive)
GI50 [37]: 8.75 µM (inactive)
GI50 [38]: 6.41 µM (inactive)
GI50 [39]: 11.6 µM (inactive)
GI50 [40]: 15.5 µM (inactive)
GI50 [41]: 11.5 µM (inactive)
GI50 [42]: 4.33 µM (inactive)
GI50 [43]: 11 µM (inactive)
GI50 [44]: 3.95 µM (inactive)
GI50 [45]: 9.06 µM (inactive)
GI50 [46]: 8.55 µM (inactive)
GI50 [47]: 5.69 µM (inactive)
GI50 [48]: 10.9 µM (inactive)
GI50 [49]: 9.27 µM (inactive)
GI50 [50]: 10.8 µM (inactive)
GI50 [51]: 5.64 µM (inactive)
GI50 [52]: 9.77 µM (inactive)
GI50 [53]: 7.94 µM (inactive)
GI50 [54]: 11.4 µM (inactive)
GI50 [55]: 3.8 µM (inactive)
GI50 [56]: 14.1 µM (inactive)
GI50 [57]: 10.1 µM (inactive)
GI50 [58]: 3.4 µM (inactive)
GI50 [59]: 4.28 µM (inactive)

— ChEMBL document CHEMBL1201862, “PubChem BioAssay data set” (2004)
